PubChem BioAssay AID330 (DTP/NCI, 2004)
Values joined by “and” are separate entries in the source; they are usually repeats but may differ in a detail not shown here. Identical values can stand only once. Toxic doses and inconclusive results are not listed. The calls were made as follows: active = survival T/C of 150% or more; inactive = T/C below 125% in these data.

Test system: P388 leukemia ip, CD2F1 mice, survival T/C
Test: NCI In Vivo Anticancer Drug Screen. Data for tumor model P388 Leukemia (intraperitoneal) in CD2F1 (CDF1) mice
Conditions: endpoint: median survival time, higher = longer survival
How it was run: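 Mice carrying the transplanted tumor received test compound or vehicle. Survival was recorded in each group, and the value is the treated-group measurement divided by that of the vehicle-treated control group.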

[1] = dose: 50.0 mg/kg/injection, schedule: Q01DX005 (ip), vehicle: Klucel (hydroxypropylcellulose) (HPC)
[2] = dose: 100.0 mg/kg/injection, schedule: Q01DX005 (ip), vehicle: Klucel (hydroxypropylcellulose) (HPC)
[3] = dose: 200.0 mg/kg/injection, schedule: Q01DX005 (ip), vehicle: Klucel (hydroxypropylcellulose) (HPC)
[4] = dose: 60.0 mg/kg/injection, schedule: Q01DX005 (ip), vehicle: saline with Tween-80
[5] = dose: 120.0 mg/kg/injection, schedule: Q01DX005 (ip), vehicle: saline with Tween-80
[6] = dose: 50.0 mg/kg/injection, schedule: Q01DX005 (ip), vehicle: saline with Tween-80
[7] = dose: 100.0 mg/kg/injection, schedule: Q01DX005 (ip), vehicle: saline with Tween-80
[8] = dose: 200.0 mg/kg/injection, schedule: Q01DX005 (ip), vehicle: saline with Tween-80
[9] = dose: 60.0 mg/kg/injection, schedule: Q01DX005 (ip), vehicle: Klucel (hydroxypropylcellulose) (HPC)
[10] = dose: 120.0 mg/kg/injection, schedule: Q01DX005 (ip), vehicle: Klucel (hydroxypropylcellulose) (HPC)
[11] = dose: 240.0 mg/kg/injection, schedule: Q01DX005 (ip), vehicle: Klucel (hydroxypropylcellulose) (HPC)

Measured: T/C

COc1ccc(C2(C)C(C#N)(C#N)C2(C#N)C#N)cc1
inactive: dose: 18.75 mg/kg/injection, schedule: Q01DX009 (ip), vehicle: saline 103 % of control | dose: 37.5 mg/kg/injection, schedule: Q01DX009 (ip), vehicle: saline 100 % of control | dose: 75.0 mg/kg/injection, schedule: Q01DX009 (ip), vehicle: saline 116 % of control | dose: 150.0 mg/kg/injection, schedule: Q01DX009 (ip), vehicle: saline 111 % of control

O=C1C=Cn2cc(-c3ccccc3)c(-c3ccccc3)c21
inactive: [1] 96 % of control | [2] 97 % of control | [3] 95 % of control

CN=C(NC)NCCSCc1ccc2ccccc2n1
inactive: dose: 12.5 mg/kg/injection, schedule: Q01DX005 (ip), vehicle: saline 115 % of control | dose: 25.0 mg/kg/injection, schedule: Q01DX005 (ip), vehicle: saline 118 % of control | dose: 50.0 mg/kg/injection, schedule: Q01DX005 (ip), vehicle: saline 102 % of control and 112 % of control

Cc1nccn1CC(=O)c1ccccc1
inactive: [4] 104 % of control | [5] 104 % of control

O=Nc1c(O)c(Cl)cc2ccccc12
inactive: dose: 3.12 mg/kg/injection, schedule: Q01DX005 (ip), vehicle: saline with Tween-80 101 % of control | dose: 6.25 mg/kg/injection, schedule: Q01DX005 (ip), vehicle: saline with Tween-80 103 % of control

Cc1ccc(S(=O)(=O)N/N=C/c2ccc(N(C)C)cc2)cc1
inactive: dose: 12.5 mg/kg/injection, schedule: Q01DX009 (ip), vehicle: other 113 % of control | dose: 25.0 mg/kg/injection, schedule: Q01DX009 (ip), vehicle: other 96 % of control | dose: 50.0 mg/kg/injection, schedule: Q01DX009 (ip), vehicle: other 109 % of control | dose: 100.0 mg/kg/injection, schedule: Q01DX009 (ip), vehicle: other 100 % of control | dose: 200.0 mg/kg/injection, schedule: Q01DX009 (ip), vehicle: other 106 % of control | dose: 400.0 mg/kg/injection, schedule: Q01DX009 (ip), vehicle: other 100 % of control

CCOCNC=O
inactive: dose: 125.0 mg/kg/injection, schedule: Q01DX005 (ip), vehicle: water 107 % of control | dose: 250.0 mg/kg/injection, schedule: Q01DX005 (ip), vehicle: water 100 % of control | dose: 500.0 mg/kg/injection, schedule: Q01DX005 (ip), vehicle: water 107 % of control | dose: 1000.0 mg/kg/injection, schedule: Q01DX005 (ip), vehicle: water 112 % of control

c1ccc(C[N+]23CCN(CC2)CC3)cc1
inactive: dose: 12.5 mg/kg/injection, schedule: Q04DX003 (ip), vehicle: saline 109 % of control | dose: 25.0 mg/kg/injection, schedule: Q04DX003 (ip), vehicle: saline 95 % of control | dose: 50.0 mg/kg/injection, schedule: Q04DX003 (ip), vehicle: saline 90 % of control

O=C1OC(=O)C2C1C1c3ccccc3C2(O)c2ccccc21 (centres undefined)
inactive: dose: 30.0 mg/kg/injection, schedule: Q01DX005 (ip), vehicle: saline with Tween-80 106 % of control | [4] 100 % of control | [5] 94 % of control

C1CNC(C2=NCCN2)=N1
inactive: [6] 108 % of control | [7] 101 % of control | [8] 97 % of control

O=C1CCNN1c1ccccc1
inactive: dose: 12.5 mg/kg/injection, schedule: Q01DX009 (ip), vehicle: water 100 % of control | dose: 25.0 mg/kg/injection, schedule: Q01DX009 (ip), vehicle: water 103 % of control | dose: 50.0 mg/kg/injection, schedule: Q01DX009 (ip), vehicle: water 100 % of control | dose: 100.0 mg/kg/injection, schedule: Q01DX009 (ip), vehicle: water 103 % of control | dose: 200.0 mg/kg/injection, schedule: Q01DX009 (ip), vehicle: water 106 % of control

C(=NCCC[Si]12OCCN(CCO1)CCO2)c1ccccc1
inactive: [1] 105 % of control | [2] 98 % of control | [3] 102 % of control

[CH3][Sn]1([CH3])[O]C(=O)C(=O)[O]1
inactive: dose: 6.25 mg/kg/injection, schedule: Q01DX001 (ip), vehicle: Klucel (hydroxypropylcellulose) (HPC) 105 % of control | dose: 12.5 mg/kg/injection, schedule: Q01DX001 (ip), vehicle: Klucel (hydroxypropylcellulose) (HPC) 102 % of control | dose: 25.0 mg/kg/injection, schedule: Q01DX001 (ip), vehicle: Klucel (hydroxypropylcellulose) (HPC) 101 % of control

COC(=O)N1N=C(c2ccccc2)C(C(=O)OC)(C(=O)OC)c2ccccc21
inactive: [4] 93 % of control | [5] 87 % of control

CN(C)c1ccc(P(=O)(O)O)cc1
inactive: [6] 96 % of control | [7] 99 % of control | [8] 91 % of control

[N-]=[N+]=NP1(=O)OC(c2ccccc2)=CCN1c1ccccc1 (centres undefined)
inactive: [1] 105 % of control | [2] 103 % of control | [3] 100 % of control

Cc1cc(C)c(CSc2cc(N)nc(N)c2N)c(C)c1
inactive: dose: 50.0 mg/kg/injection, schedule: Q01DX009 (ip), vehicle: Klucel (hydroxypropylcellulose) (HPC) 104 % of control | dose: 100.0 mg/kg/injection, schedule: Q01DX009 (ip), vehicle: Klucel (hydroxypropylcellulose) (HPC) 107 % of control

CN(C=O)c1ccc(C(=O)NC(CCC(=O)O)C(=O)O)cc1 (centres undefined)
inactive: [9] 98 % of control | [10] 98 % of control | [11] 89 % of control

O=C1NC2CSC(CCCCC(=O)ON3C(=O)CCC3=O)C2N1 (centres undefined)
inactive: [6] 104 % of control | [7] 116 % of control | [8] 116 % of control

Cc1c(O)c2ccc(N(C)C)cc2[nH]c1=O
inactive: [6] 101 % of control | [7] 95 % of control | [8] 100 % of control

CSc1nc(Cl)cc(N2CC2)n1
inactive: dose: 0.5 mg/kg/injection, schedule: Q04DX003 (ip), vehicle: saline 110 % of control | dose: 1.0 mg/kg/injection, schedule: Q04DX003 (ip), vehicle: saline 100 % of control | dose: 2.0 mg/kg/injection, schedule: Q04DX003 (ip), vehicle: saline 100 % of control

Cc1c2ccncc2c(CNC(=O)C(N)Cc2c[nH]c3ccccc23)c2c3ccccc3n(C)c12 (centres undefined)
inactive: dose: 6.25 mg/kg/injection, schedule: Q04DX002 (ip), vehicle: saline with Tween-80 108 % of control | dose: 12.5 mg/kg/injection, schedule: Q04DX002 (ip), vehicle: saline with Tween-80 112 % of control | dose: 25.0 mg/kg/injection, schedule: Q04DX002 (ip), vehicle: saline with Tween-80 115 % of control | dose: 50.0 mg/kg/injection, schedule: Q04DX002 (ip), vehicle: saline with Tween-80 117 % of control

COc1cc2c(C)cc(=O)oc2c(OCC(O)CN2CCCC2)c1OC (centres undefined)
inactive: dose: 60.0 mg/kg/injection, schedule: Q01DX005 (ip), vehicle: saline 96 % of control | dose: 120.0 mg/kg/injection, schedule: Q01DX005 (ip), vehicle: saline 99 % of control

Cc1cc2cc3c(=O)n(C)c(=O)nc-3n(C)c2cc1C
inactive: [6] 92 % of control | [7] 98 % of control | [8] 95 % of control

COc1cc2c(cc1[N+](=O)[O-])C(=O)CCCC2
inactive: dose: 100.0 mg/kg/injection, schedule: Q01DX009 (sc), vehicle: olive oil, sesame oil, peanut oil 104 % of control | dose: 200.0 mg/kg/injection, schedule: Q01DX009 (sc), vehicle: olive oil, sesame oil, peanut oil 100 % of control | dose: 400.0 mg/kg/injection, schedule: Q01DX009 (sc), vehicle: olive oil, sesame oil, peanut oil 107 % of control

CCOC(=O)C1C(c2ccc(OC)cc2OC)c2cc3c(cc2OC1(C)N1CCCC1)OCO3 (centres undefined)
inactive: [9] 90 % of control | [10] 97 % of control | [11] 94 % of control

CC(C)=CC1C(/C(C)=C/CCCCC(=O)O)C1(C)C (centres undefined)
inactive: dose: 100.0 mg/kg/injection, schedule: Q04DX002 (ip), vehicle: saline with Tween-80 101 % of control | dose: 200.0 mg/kg/injection, schedule: Q04DX002 (ip), vehicle: saline with Tween-80 94 % of control | dose: 400.0 mg/kg/injection, schedule: Q04DX002 (ip), vehicle: saline with Tween-80 96 % of control

c1ccc(-c2c3ccccc3c[n+]3ccccc23)cc1
inactive: dose: 3.13 mg/kg/injection, schedule: Q01DX009 (ip), vehicle: Klucel (hydroxypropylcellulose) (HPC) 106 % of control | dose: 6.25 mg/kg/injection, schedule: Q01DX009 (ip), vehicle: Klucel (hydroxypropylcellulose) (HPC) 92 % of control

CC(=N\O)/C(=N\O)C(=O)c1ccccc1
inactive: dose: 50.0 mg/kg/injection, schedule: Q01DX009 (ip), vehicle: saline with Tween-80 95 % of control | dose: 100.0 mg/kg/injection, schedule: Q01DX009 (ip), vehicle: saline with Tween-80 90 % of control | dose: 200.0 mg/kg/injection, schedule: Q01DX009 (ip), vehicle: saline with Tween-80 90 % of control
